Experimental data published in US9115122B2, “Non-ATP dependent inhibitors of extracellular signal-regulated kinase (ERK)” (UNIVERSITY OF MARYLAND, BALTIMORE, priority 2012, dated 2015).

How the values were obtained:
Assay in all cases: Cell proliferation WST-1 assay, single dose (Example 4)
Assay type in all cases: cell-based
Conditions in all cases: 100 μM, 48 hours
RPMI-7951 melanoma cells = tested on: RPMI-7951 melanoma cells
Method: (§1) In addition, compounds were tested in RPMI-7951 cells, which also contain mutated BRaf and are resistant to BRaf inhibitors due to the overexpression of MAP3K8 (the gene encoding COT/Tp12) that provides an alternative mechanism to indirectly or directly activate ERK proteins. […] For comparison, HeLa cervical carcinoma and Jurkat T-cell leukemia cells, which are p53 defective cancer cell lines but contain no known activating mutations in the ERK pathway, were studied. […] Cell proliferation was evaluated by water soluble tetrazolium-1 (WST-1) assay as previously described. Briefly, cells (˜5000/well) were seeded in 96 well plates, allowed to recover for 16-20 hours, and then treated with the indicated test compound for 48 hours. After incubation, WST-1 reagent was added and absorbance was read at 450 nm with background subtraction taken at 650 nm. Values were normalized to the control (DMSO only treated) cells.

[1] = tested on: Jurkat T-cell leukemia cells
Method: as §1

[2] = tested on: HeLa cervical carcinoma cells
Method: as §1

A375 melanoma cells = tested on: A375 melanoma cells
Method: as §1

SK-MEL-28 melanoma cells = tested on: SK-MEL-28 melanoma cells
Method: as §1

HL-60 leukemic cells = tested on: HL-60 leukemic cells
Method: as §1

SMILES	Cell Viability (% of Vehicle) RPMI-7951 (RPMI-7951 melanoma cells)	Cell Viability (% of Vehicle) Jurkat [1]	Cell Viability (% of Vehicle) HeLa [2]	Cell Viability (% of Vehicle) A375 (A375 melanoma cells)	Cell Viability (% of Vehicle) SK-MEL-28 (SK-MEL-28 melanoma cells)	Cell Viability (% of Vehicle) HL-60 (HL-60 leukemic cells)
CCOc1ccc(/C=C2\SC(=O)N(CCNC(C)=O)C2=O)cc1 [Compound 25a, (Z)—N-(2-(5-(4-ethoxybenzylidene)-2,4-dioxothiazolidin-3-yl)ethyl)acetamide]	124 ± 5 % of Vehicle	105 ± 8 % of Vehicle	100 ± 11 % of Vehicle	121 ± 4 % of Vehicle	105 ± 2 % of Vehicle	106 ± 23 % of Vehicle
CCOc1ccc(/C=C2\SC(=O)N(CCNC(=O)C(F)(F)F)C2=O)cc1 [Compound 25b, (Z)—N-(2-(5-(4-ethoxybenzylidene)-2,4-dioxothiazolidin-3-yl)ethyl)-2,2,2-trifluoroacetamide]	127 ± 3 % of Vehicle	103 ± 6 % of Vehicle	98 ± 11 % of Vehicle	118 ± 4 % of Vehicle	105 ± 2 % of Vehicle	101 ± 23 % of Vehicle
CCOc1ccc(/C=C2\SC(=O)N(CCNC(=O)OC(C)(C)C)C2=O)cc1 [Compound 25c, (Z)-tert-butyl (2-(5-(4-ethoxybenzylidene)-2,4-dioxothiazolidin-3-yl)ethyl)carbamate]	62 ± 7 % of Vehicle	92 ± 7 % of Vehicle	81 ± 1 % of Vehicle	84 ± 2 % of Vehicle	73 ± 1 % of Vehicle	31 ± 5 % of Vehicle
CCOc1ccc(/C=C2\SC(=O)N(CCNC(=O)c3ccc(C#N)cc3)C2=O)cc1 [Compound 25d, (Z)-4-cyano-N-(2-(5-(4-ethoxybenzylidene)-2,4-dioxothiazolidin-3-yl)ethyl)benzamide]	122 ± 10 % of Vehicle	102 ± 7 % of Vehicle	99 ± 9 % of Vehicle	118 ± 3 % of Vehicle	103 ± 2 % of Vehicle	101 ± 12 % of Vehicle
CCOc1ccc(/C=C2\SC(=O)N(CCNC(=O)OC)C2=O)cc1 [Compound 26a, (Z)-methyl (2-(5-(4-ethoxybenzylidene)-2,4-dioxothiazolidin-3-yl)ethyl)carbamate]	102 ± 4 % of Vehicle	97 ± 7 % of Vehicle	84 ± 4 % of Vehicle	96 ± 4 % of Vehicle	88 ± 3 % of Vehicle	104 ± 31 % of Vehicle
CCOc1ccc(/C=C2\SC(=O)N(CCNC(=O)OC(C)(C)C)C2=O)cc1 [Compound 26b, (Z)-tert-butyl (2-(5-(4-ethoxybenzylidene)-2,4-dioxothiazolidin-3-yl)ethyl)carbamate]	67 ± 4 % of Vehicle	111 ± 9 % of Vehicle	88 ± 5 % of Vehicle	88 ± 3 % of Vehicle	83 ± 5 % of Vehicle	95 ± 21 % of Vehicle
CCOc1ccc(/C=C2\SC(=O)N(CCNC(=O)OCC(C)C)C2=O)cc1 [Compound 26c, (Z)-isobutyl (2-(5-(4-ethoxybenzylidene)-2,4-dioxothiazolidin-3-yl)ethyl)carbamate]	75 ± 12 % of Vehicle	110 ± 4 % of Vehicle	95 ± 3 % of Vehicle	102 ± 4 % of Vehicle	94 ± 1 % of Vehicle	80 ± 28 % of Vehicle
CCOc1ccc(/C=C2\SC(=O)N(CCNC(=O)OCc3ccccc3)C2=O)cc1 [Compound 26d, (Z)-benzyl (2-(5-(4-ethoxybenzylidene)-2,4-dioxothiazolidin-3-yl)ethyl)carbamate]	54 ± 6 % of Vehicle	112 ± 5 % of Vehicle	98 ± 6 % of Vehicle	103 ± 3 % of Vehicle	97 ± 1 % of Vehicle	85 ± 27 % of Vehicle
CCOc1ccc(/C=C2\SC(=O)N(CCNC(=O)OCC3c4ccccc4-c4ccccc43)C2=O)cc1 [Compound 26e, (Z)-(9H-fluoren-9-yl)methyl (2-(5-(4-ethoxybenzylidene)-2,4-dioxothiazolidin-3-yl)ethyl)carbamate]	27 ± 3 % of Vehicle	139 ± 14 % of Vehicle	85 ± 4 % of Vehicle	43 ± 3 % of Vehicle	29 ± 7 % of Vehicle	103 ± 13 % of Vehicle
CCOc1ccc(/C=C2\SC(=O)N(CCNS(C)(=O)=O)C2=O)cc1 [Compound 27a, (Z)—N-(2-(5-(4-ethoxybenzylidene)-2,4-dioxothiazolidin-3-yl)ethyl)methanesulfonamide]	68 ± 3 % of Vehicle	85 ± 3 % of Vehicle	82 ± 1 % of Vehicle	94 ± 2 % of Vehicle	87 ± 2 % of Vehicle	82 ± 44 % of Vehicle
CCOc1ccc(/C=C2\SC(=O)N(CCNS(=O)(=O)c3ccc(C#N)cc3)C2=O)cc1 [Compound 27b, (Z)-4-cyano-N-(2-(5-(4-ethoxybenzylidene)-2,4-dioxothiazolidin-3-yl)ethyl)benzenesulfonamide]	99 ± 4 % of Vehicle	103 ± 3 % of Vehicle	90 ± 4 % of Vehicle	109 ± 6 % of Vehicle	95 ± 3 % of Vehicle	101 ± 52 % of Vehicle
CCOc1ccc(/C=C2\SC(=O)N(CCNS(=O)(=O)c3cn(C)cn3)C2=O)cc1 [Compound 27c, (Z)—N-(2-(5-(4-ethoxybenzylidene)-2,4-dioxothiazolidin-3-yl)ethyl)-1-methyl-1H-imidazole-4-sulfonamide]	118 ± 6 % of Vehicle	97 ± 4 % of Vehicle	91 ± 5 % of Vehicle	107 ± 2 % of Vehicle	92 ± 5 % of Vehicle	51 ± 31 % of Vehicle
CCCN1C(=O)S/C(=C\c2ccc(OCC)cc2)C1=O [Compound 28d, (Z)-5-(4-ethoxybenzylidene)-3-propylthiazolidine-2,4-dione]	116 ± 10 % of Vehicle	101 ± 5 % of Vehicle	96 ± 4 % of Vehicle	119 ± 5 % of Vehicle	101 ± 3 % of Vehicle	80 ± 26 % of Vehicle
